Measurements published in PubChem BioAssay AID179 (DTP/NCI, 2004).
The source made the active and inactive calls.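 How the source made its calls: active means compounds giving half or more protection of infected cells from virus-caused growth loss, again on retest; inactive means the rest.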

System: CEM cells HIV-1 protection, formazan growth assay
Assay: NCI AIDS Antiviral Assay
Conditions: for IC50: measured here: growth of uninfected CEM cells
In short: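 Protection of CEM cells against HIV-1 was scored from cell growth (soluble formazan) across five concentrations, with parallel uninfected cells. Lack of protection may reflect toxicity.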

SMILES	EC50 [µM]	IC50 [µM]	outcome
Cc1nc2n[nH]c(N)c2nc1C	> 83.2	> 83.2	
Cc1cc(NS(=O)(=O)c2ccc(Nc3c4ccccc4nc4c(C(=O)O)cccc34)cc2)no1	> 200	178	
O=c1c(/C=N/OCCCCO/N=C/c2cc3c(cc2[N+](=O)[O-])OCO3)coc2c(Cl)cc(Cl)cc12	> 200	75.9	
O=C1C2=C(CCCCC2)C2CCCCC12O (stereo not given)	> 200	> 200	
COc1ccc(N2C(=O)C3c4[nH]c5ccccc5c4C4CCCCCCCCCC4C3C2=O)cc1 (stereo not given)	> 200	> 200	
Nn1c(-c2ccccc2Nc2ccccc2-c2n[nH]c(=S)n2N)n[nH]c1=S	> 50.1	6.17	
C/C(=N\NC(=S)N1CC2CCC(CC2)C1)c1nccs1	> 115	0.363	
CCNc1ncnc2sc(SCc3ccccc3)nc12	> 200	> 200	
N#C/C(=C/n1c(=S)[nH]c2ccc([N+](=O)[O-])cc21)C(N)=O	> 200	> 200	
O=C(O)COc1ccc(O)c2c1C(=O)CCCC2=O			inactive
O=C(/C=C/c1ccccc1)c1c2ccccc2cc2ccccc12	> 8.91	> 8.91	
CC(C)(C)OC(=O)N1CC(C)(C)N2C(=O)C3(CCCO3)C12 (stereo not given)	33.9	347	
COC(=O)/C(=C\c1cn(C(C)=O)c2ccccc12)P(=O)(OC)OC	> 200	33.1	
CC1=NN(c2ccccc2)C(=O)/C1=C\N1CC(=O)NC1=S	> 200	87.1	
Cc1ccc(N=Nc2c(C)c(C#N)c(=S)n(C3OC(CO)C(O)C(O)C3O)c2C)cc1 (stereo not given)	> 200	19.1	
CC#COS(=O)(=O)c1ccc(C)cc1	> 251	110	
CCCO/S(=N\S(=O)(=O)c1ccccc1)c1ccccc1[N+](=O)[O-] (stereo not given)	> 676	> 676	
Cc1noc2c1CSC1=C2S(=O)(=O)N(C)c2ccccc21	> 58.9	> 58.9	
COc1cc(Nc2nc3cc(C(F)(F)F)ccc3nc2C)cc(OC)c1OC	> 60.3	31.6	
O=c1c2ccccc2[nH]c(=S)n1-c1cccc(C(F)(F)F)c1	> 200	> 200	
Fc1ccc2c(c1)CN(CCN1COc3ccc(F)cc3C1)CO2	> 8.13	> 8.13	
O=C1Nc2nc3ccccc3n2N=C2CCCC12 (stereo not given)			inactive

SMILES	EC50 [µM]	IC50 [µM]	outcome
O=C(/N=C1/OC(CN2CCOCC2)CN1C(=O)Nc1ccccc1)Nc1ccccc1 (stereo not given)	> 200	> 200	
CCCCOC(=O)/C(CC(=O)C=C(C)C)=N\NS(=O)(=O)c1ccc(C)cc1	> 174	> 174	
c1ccc(-c2nnc(-c3nsc4ccccc34)o2)cc1	> 18.6	> 18.6	
Cc1ccc(C(=O)Nc2ccc(S(=O)(=O)O)c3cc(S(=O)(=O)O)cc(S(=O)(=O)O)c23)cc1NC(=O)c1cccc(NC(=O)Nc2cccc(C(=O)Nc3cc(C(=O)Nc4ccc(S(=O)(=O)O)c5cc(S(=O)(=O)O)cc(S(=O)(=O)O)c45)ccc3C)c2)c1	34.7	174	
O=C(N/C(=C\c1ccc([N+](=O)[O-])cc1)c1nc2[nH]c(=S)[nH]c(=O)c2[nH]1)c1ccccc1			inactive
CCCCCCCCCCC(O)C1CCC(C(O)CCC(O)C2CCC(CCCCCCC[C@H](O)CC3=C[C@@H](C)OC3=O)O2)O1 (stereo not given in full)	> 7.76	0.00245	
CS(=O)(=O)OCC1OS(=O)OC1COS(C)(=O)=O (stereo not given)	> 200	4.9	
CC12CCCC1C1CC=C3CC(SC4CCC5(C)C(=CCC6C7CCCC7(C)CCC65)C4)CCC3(C)C1CC2 (stereo not given)	> 200	> 200	
O=C1CSC(C(N=Nc2ccc(Cl)cc2)c2nc3ccccc3[nH]2)=N1 (stereo not given)	> 1.95	> 1.95	
COc1cccc(/C=C(\NC(C)=O)c2nc3ccc(Cl)cc3[nH]2)c1			inactive
c1ccc(COc2cccc3cccnc23)cc1	> 251	110	
CCOC(=O)CNC(=O)c1cccc2c(Nc3ccc(S(=O)(=O)Nc4cc(C)on4)cc3)c3ccccc3nc12	> 200	12.3	
CCOC(=O)/C(F)=C/c1ccc(OC)cc1	> 115	> 115	
Cn1c(=O)c2c(nc3n(CCCCl)c(=O)ccn23)n(C)c1=O	> 200	> 100	
COc1nc2c(nc(N)n2C2OCC(O)C(O)C2O)c(=O)n1C (stereo not given)			inactive
COC1/C=C/OC2(C)Oc3c(C)c(O)c4c(O)c(c(/C=N\N(C)C56CC7CC(CC(C7)C5)C6)c(O)c4c3C2=O)NC(=O)C(C)=C/C=C/C(C)C(O)C(C)C(O)C(C)C(OC(C)=O)C1C (stereo not given)	> 200	7.41	
O=C(c1nc2cc([N+](=O)[O-])ccc2[nH]c1=O)C(O)c1ccco1 (stereo not given)	> 200	61.7	
O=CN/C=C\c1cc(O)ccc1O	> 427	5.25	
Cc1c(N(C)C)ccc2c(=O)c3cccc(CC(=O)O)c3oc12	> 741	282	
O=S(=O)(O)CCCCO	> 200	> 200	
CCN(c1ccccc1)c1cc(=O)nc2ccccn12	> 200	> 200	
CC(C)(C)[Si](C)(C)OCCCCC1CC2(S(=O)(=O)C3=CC=C=C=C3)ON1CC2S(=O)(=O)c1ccccc1 (stereo not given)	> 45.7	> 45.7	

SMILES	EC50 [µM]	IC50 [µM]	outcome
NC(CCc1nc(-c2ccc(Cl)cc2)cs1)C(=O)O (stereo not given)			inactive
COC(=O)C1=C(C)C(=O)[C@H]2C(C(=O)OC)CCCC[C@@H]12 (stereo not given in full)	> 200	129	
O=C(Nc1ccc(Cl)cc1)NS(=O)(=O)c1c(-c2ccccc2)oc2ccccc2c1=O			inactive
CCOc1ccc(-c2oc(/C=N/NS(=O)(=O)c3ccc(C)cc3)c([N+](=O)[O-])c2-c2ccc(OCC)cc2)cc1	> 3.63	> 3.63	
CC(C)(C)c1cc(C(=O)/C=C/c2ccc(C(=O)O)cc2)cc(C(C)(C)C)c1	> 15.1	8.32	
O=C(O)C1CCSS1 (stereo not given)	> 457	263	
CC(=O)/C(C=Nc1c(C)n(C)n(-c2ccccc2)c1=O)=C(/C)O	> 200	> 200	
Nc1cccc2cn[nH]c12	> 1480	229	
CCOc1ccc(N2CC(=O)N3CCCN3C(=O)C2)cc1	> 123	> 123	
CCOC(=O)NN(C(=O)OCC)C(=C(C1CCCCC1)N1CCOCC1)N(NC(=O)OCC)C(=O)OCC	126	170	
C=C1CC2CC(O)CC(C1)C2 (stereo not given)			inactive
Clc1cc2c(c3ncccc13)OCN(Cc1ccccc1)C2	> 200	1.02	
CC(C)OC(=O)[C@H]1ON2O[C@H](O[C@@H]3CCCC[C@H]3c3ccccc3)C([Si](C)(C)c3ccccc3)[C@H]3OC(=O)[C@@H]1C32 (stereo not given in full)	> 200	158	
Cc1nc2c(c(=O)[nH]1)S/C(=C(/C#N)c1nc3ccccc3[nH]1)N2c1ccccc1	> 3.63	> 3.63	
c1csc(-c2cc(-c3cccs3)c(-c3cccs3)s2)c1	> 200	38.9	
CN(C)c1ccc(/C=C(\NC(=O)c2ccccc2)c2nc3ncncc3[nH]2)cc1			inactive
N#CC1(C#N)C2C=CC(C3CCC=C32)C1(C#N)C#N (stereo not given)	> 200	7.76	
COc1cc(/C=C/C(=O)OCC23CC[C@@]4(C(=O)O)CCC(C)[C@H](C)C4C2=CCC2[C@@]4(C)CC[C@H](O)C(C)(C)C4CC[C@]23C)ccc1O (stereo not given in full)	> 200	1.05	
Nc1nc(Cl)c(C=O)c(NCC2(CO)CCC2)n1	> 200	2.88	
CC(=O)c1c(O)cc(O)cc1-c1cc(=O)c2c(O)ccc(C(C)=O)c2o1	> 200	170	
CCOC(=O)/C(F)=C/c1cccc(C#N)c1	> 117	> 117	
CCN(CC)CCOC(=O)C(c1ccccc1)c1ccccc1	> 200	> 200	

SMILES	EC50 [µM]	IC50 [µM]	outcome
COc1ccc(C2CC(=O)c3c(O)cc(O)cc3O2)cc1O (stereo not given)	> 832	74.1	
S=C(N/N=C(/c1ccccc1)c1ccccn1)Nc1ccccc1Cl	> 0.2	0.0871	
COCCNc1cncc(C(N)=O)c1	> 200	> 200	
CC(=O)C(=Cc1ccc(Br)cc1)C(C)=O	> 51.3	27.5	
Nc1nc(NCC2(CO)CC(CCc3ccccc3)C2)cc(=O)[nH]1 (stereo not given)	> 200	64.6	
CC1(C)COC(c2cccc(C3=NC(C)(C)CO3)c2)=N1	> 200	> 200	
CC(=O)O/N=C(/C)c1ccccc1O	> 26.9	> 26.9	
O=C(Oc1cccc2cccnc12)c1ccccc1	> 200	33.9	
[O-]c1c2cc(-[n+]3c(-c4ccccc4)cc(-c4ccccc4)cc3-c3ccccc3)cc1CO[C@@H](c1ccccc1)[C@H](c1ccccc1)OCc1cccc(n1)CO[C@@H](c1ccccc1)[C@H](c1ccccc1)OC2	> 1	0.0794	
COC(=O)[C@H](Cc1c[nH]c2ccccc12)NC(=O)OCC1OC(n2cc(C)c(=O)[nH]c2=O)CC1N=[N+]=[N-] (stereo not given in full)	> 158	132	
CCC1(c2cccc(C)c2)Oc2ccccc2-n2cccc2C1=O (stereo not given)	0.537	126	
COc1ccc2nc(NC(=O)C(=O)CC(=O)c3ccc([N+](=O)[O-])cc3)sc2c1			inactive
CN1C(c2ccccc2)(c2ccccc2)c2ccccc2S1(=O)=O	> 200	50.1	
O=c1cc(NCC2CCCCC2)[nH]c(=O)[nH]1	> 200	> 200	
O=C(CCC(=O)Nc1cccc(Cl)c1)CC(=O)c1ccc(Cl)cc1			inactive
COc1ccc(C2=C(OC(=O)N(C)C)c3cccn3-c3cc(C(F)(F)F)ccc3S2)cc1	> 200	> 200	
CC(=O)N1c2cc(N=NN(C)C)ccc2NC(=O)CC1C (stereo not given)	> 200	> 200	
CC1Oc2c(c(=O)oc3ccccc23)[C@@]1(C)CC1C[C@H](C)C(=O)O1 (stereo not given in full)	> 200	24.5	
O=c1oc2cc(O)ccc2c(O)c1C(c1cccnc1)c1c(O)c2ccc(O)cc2oc1=O			inactive
NC(CCCCNc1ccn(C2OC(CO)C(O)C2O)c(=O)n1)C(=O)O (stereo not given)	> 100	5.5	
